The values that follow come from patent US9409952B2, “Peptide-compound cyclization method” (Chugai Seiyaku Kabushiki Kaisha, priority 2011, dated 2016).

Starred links: 1 amine or outer side, 2 acyl side, 3 side chain; linkers in the order of their positions; H or OH if unused. Positions of bridges follow the written chain, without caps; N, C: chain ends. Non-standard residues stand in square brackets, D forms with d. Residues, ends and D or L forms follow the SMILES beside them. *: point of attachment. NMeF = CN[C@@H](Cc1ccccc1)C(=O)O; NMeβAla = CN(CCC(=O)[*:2])[*:1]; NMeL = CN[C@@H](CC(C)C)C(=O)O; NMeV = CN[C@H](C(=O)O)C(C)C; NMeA = CN[C@@H](C)C(=O)O; Piperidide = C1CCN(*)CC1; dNMeA = CN[C@H](C)C(=O)O; Sar = CNCC(=O)O; tBu = CC(C)(C)*

A short description of data set [1]: Metabolic stability in human hepatic microsome. Particulars: microsomes, pH 7.4; human hepatic microsome, NADPH(+); read-out: CL NADPH(+). Type of data set: in vitro ADME.
A short description of data set [2]: PAMPA (parallel artificial membrane permeability assay). The format is in vitro ADME. Particulars: PAMPA; membrane permeation rate (Pe); 50 mM MOPSO buffer pH 6.5 with 5.0% glycocholic acid, 37° C., 18 hours; read-out: iPAMPA Pe. In outline:
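Artificial membrane was 10% (w/v) egg lecithin plus 0.5% (w/v) cholesterol in dodecane on a PVDF filter. A 10 mM DMSO stock was added at 0.5% (v/v) to donor buffer (50 mM MOPSO, pH 6.5, 5.0% glycocholic acid). After 18 h at 37 °C, LC/MS or LC/UV gave donor and acceptor levels for Pe.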
On the technique in general: The PAMPA barrier holds no transporters, so it reflects passive diffusion.

For the compound `CC(C)C[C@H]1C(=O)N(C)[C@@H](Cc2ccccc2)C(=O)N[C@@H](Cc2ccccc2)C(=O)N(C)[C@@H](C)C(=O)N(C)[C@@H](C(C)C)C(=O)N[C@@H]([C@@H](C)O)C(=O)N[C@H](C(=O)N2CCCCC2)CC(=O)N(C)[C@@H](C)C(=O)N[C@@H](COC(C)(C)C)C(=O)NCC(=O)N1C` [DP-438] ([NMeA]S(tBu)G[NMeL][NMeF]F[NMeA][NMeV]TD-Piperidide; lactam N-10), the microsomal CLint at 1 uM in data set [1] came to 155 µL/min/mg. The Papp at 18 hours, 50 µM in data set [2] is 38 ×10⁻⁶ cm/s.
For `CC[C@H](C)[C@@H]1NC(=O)[C@H](CC(C)C)N(C)C(=O)[C@H](CC(C)C)N(C)C(=O)[C@H](C)N(C)C(=O)[C@H]([C@@H](C)O)NC(=O)[C@H](C(C)C)N(C)C(=O)[C@H](Cc2ccccc2)NC(=O)CN(C)C(=O)[C@H](C)N(C)C(=O)C[C@@H](C(=O)N2CCCCC2)NC1=O` [DP-439] ([NMeA][Sar]F[NMeV]T[NMeA][NMeL][NMeL]ID-Piperidide; lactam N-10), in that order: 139 µL/min/mg and 34 ×10⁻⁶ cm/s.
In the same order, the values of `CC[C@H](C)[C@@H]1NC(=O)CN(C)C(=O)[C@H]([C@@H](C)O)NC(=O)[C@H](CC(C)C)N(C)C(=O)[C@H](Cc2ccccc2)N(C)C(=O)CCN(C)C(=O)C[C@@H](C(=O)N2CCCCC2)NC(=O)[C@H](CC(C)C)N(C)C(=O)[C@H](CC(C)C)N(C)C1=O` [DP-440] ([NMeβAla][NMeF][NMeL]T[Sar]I[NMeL][NMeL]D-Piperidide; lactam N-9) are 124 µL/min/mg and 29 ×10⁻⁶ cm/s.
For `CC(C)C[C@@H]1NC(=O)[C@H](Cc2ccccc2)N(C)C(=O)[C@H](CC(C)C)N(C)C(=O)[C@@H](C)N(C)C(=O)C[C@@H](C(=O)N2CCCCC2)NC(=O)[C@H](CC(C)C)N(C)C(=O)[C@H](Cc2ccccc2)N(C)C(=O)[C@H]([C@@H](C)O)NC(=O)[C@H](Cc2ccccc2)N(C)C1=O` [DP-441] ([dNMeA][NMeL][NMeF]L[NMeF]T[NMeF][NMeL]D-Piperidide; lactam N-9), in that order: 123 µL/min/mg and 37 ×10⁻⁶ cm/s.
Regarding `CC(C)C[C@@H]1NC(=O)[C@H](CC(C)C)N(C)C(=O)[C@H](C)N(C)C(=O)C[C@@H](C(=O)N2CCCCC2)NC(=O)[C@H](CC(C)C)N(C)C(=O)[C@H](Cc2ccccc2)N(C)C(=O)[C@H](Cc2ccccc2)N(C)C(=O)[C@H]([C@@H](C)O)NC(=O)[C@H](Cc2ccccc2)N(C)C1=O` [DP-442] ([NMeA][NMeL]L[NMeF]T[NMeF][NMeF][NMeL]D-Piperidide; lactam N-9), the microsomal CLint at 1 uM in data set [1] came to 159 µL/min/mg. For the same compound, in data set [2], the Papp at 18 hours, 50 µM worked out at 38 ×10⁻⁶ cm/s.
In the same order, the values of `CC(C)C[C@H]1C(=O)N(C)[C@@H](C)C(=O)N[C@H](C(=O)N(C)[C@@H](Cc2ccccc2)C(=O)N[C@@H](C)C(=O)N2CCCCC2)CC(=O)N(C)[C@H](C)C(=O)N(C)[C@@H](C)C(=O)N[C@@H](C)C(=O)N(C)[C@@H](Cc2ccccc2)C(=O)N(C)[C@@H](C)C(=O)N(C)[C@@H](Cc2ccccc2)C(=O)N[C@@H]([C@@H](C)O)C(=O)N(C)[C@@H](C)C(=O)N1C` [DP-443] ([dNMeA][NMeA]A[NMeF][NMeA][NMeF]T[NMeA][NMeL][NMeA]D[NMeF]A-Piperidide; lactam N-11) are 17 µL/min/mg and 9.1 ×10⁻⁶ cm/s.
As to `CC(C)C[C@H]1C(=O)N(C)[C@@H](C)C(=O)N[C@@H]([C@@H](C)O)C(=O)N(C)[C@@H](C)C(=O)N(C)[C@@H](Cc2ccccc2)C(=O)N(C)[C@@H](C)C(=O)N[C@@H](C)C(=O)N(C)[C@@H](C)C(=O)N(C)[C@@H](C)C(=O)N[C@H](C(=O)N(C)[C@@H](Cc2ccccc2)C(=O)N[C@@H](C)C(=O)N2CCCCC2)CC(=O)N(C)[C@H](C)C(=O)N1C` [DP-444] ([dNMeA][NMeL][NMeA]T[NMeA][NMeF][NMeA]A[NMeA][NMeA]D[NMeF]A-Piperidide; lactam N-11), in data set [1], the microsomal CLint at 1 uM was 3 µL/min/mg. In data set [2], the Papp at 18 hours, 50 µM was determined as 0.72 ×10⁻⁶ cm/s.
Take `CC(C)C[C@H]1C(=O)N(C)[C@@H](C)C(=O)N(C)[C@@H](Cc2ccccc2)C(=O)N[C@@H]([C@@H](C)O)C(=O)N(C)[C@@H](C)C(=O)N(C)[C@@H](Cc2ccccc2)C(=O)N(C)[C@@H](C)C(=O)N[C@H](C(=O)N(C)[C@@H](Cc2ccccc2)C(=O)N[C@@H](C)C(=O)N2CCCCC2)CC(=O)N(C)[C@@H](C)C(=O)N[C@@H](C)C(=O)N(C)[C@@H](C)C(=O)N1C` [DP-445] ([NMeA]A[NMeA][NMeL][NMeA][NMeF]T[NMeA][NMeF][NMeA]D[NMeF]A-Piperidide; lactam N-11): the microsomal CLint at 1 uM in data set [1] stood at 14 µL/min/mg. The Papp at 18 hours, 50 µM in data set [2] is 11 ×10⁻⁶ cm/s.
For `CC(C)C[C@@H]1NC(=O)[C@H](CC(C)C)N(C)C(=O)CCN(C)C(=O)C[C@@H](C(=O)N(C)[C@@H](Cc2ccccc2)C(=O)N[C@@H](C)C(=O)N2CCCCC2)NC(=O)[C@H](C)N(C)C(=O)[C@H]([C@@H](C)O)NC(=O)[C@H](Cc2ccccc2)NC(=O)[C@H](CC(C)C)N(C)C(=O)CNC(=O)[C@H](Cc2ccccc2)N(C)C1=O` [DP-446] ([NMeβAla][NMeL]L[NMeF]G[NMeL]FT[NMeA]D[NMeF]A-Piperidide; lactam N-10), in that order: 104 µL/min/mg and 40 ×10⁻⁶ cm/s.
In the same order, the values of `CC[C@H](C)[C@@H]1NC(=O)[C@H](CC(C)C)N(C)C(=O)[C@H](C(C)C)N(C)C(=O)CCN(C)C(=O)C[C@@H](C(=O)N(C)[C@@H](Cc2ccccc2)C(=O)N[C@@H](C)C(=O)N2CCCCC2)NC(=O)[C@H]([C@@H](C)O)NC(=O)[C@H](Cc2ccccc2)N(C)C(=O)[C@H](C)N(C)C(=O)[C@H](CC(C)C)NC(=O)[C@H](C(C)C)N(C)C1=O` [DP-447] ([NMeβAla][NMeV][NMeL]I[NMeV]L[NMeA][NMeF]TD[NMeF]A-Piperidide; lactam N-10) are 159 µL/min/mg and 33 ×10⁻⁶ cm/s.
Take `CC(C)C[C@H]1C(=O)N(C)[C@@H](C)C(=O)N[C@@H](C(C)C)C(=O)N[C@H](C(=O)N(C)[C@@H](Cc2ccccc2)C(=O)N[C@@H](C)C(=O)N2CCCCC2)CC(=O)N(C)CCC(=O)N(C)[C@@H](C(C)C)C(=O)N(C)[C@@H](C)C(=O)N[C@@H](Cc2ccccc2)C(=O)N[C@@H]([C@@H](C)O)C(=O)N(C)[C@@H](C)C(=O)N1C` [DP-448] ([NMeβAla][NMeV][NMeA]FT[NMeA][NMeL][NMeA]VD[NMeF]A-Piperidide; lactam N-10): the microsomal CLint at 1 uM in data set [1] amounted to 27 µL/min/mg. In data set [2], the Papp at 18 hours, 50 µM worked out at 6.2 ×10⁻⁶ cm/s.
Take `CC(C)C[C@H]1C(=O)N[C@H](C(=O)N(C)[C@@H](Cc2ccccc2)C(=O)N[C@@H](C)C(=O)N2CCCCC2)CC(=O)N(C)CCC(=O)N(C)[C@@H](C)C(=O)N[C@@H](C(C)C)C(=O)N(C)[C@@H](C(C)C)C(=O)N(C)[C@@H](Cc2ccccc2)C(=O)N(C)CC(=O)N[C@@H]([C@@H](C)O)C(=O)N(C)[C@@H](C)C(=O)N1C` [DP-449] ([NMeβAla][NMeA]V[NMeV][NMeF][Sar]T[NMeA][NMeL]D[NMeF]A-Piperidide; lactam N-10): the microsomal CLint at 1 uM in data set [1] turned out to be 6 µL/min/mg. The Papp at 18 hours, 50 µM in data set [2] was found to be 6 ×10⁻⁶ cm/s.
With `CC(C)[C@@H]1NC(=O)[C@H](C)N(C)C(=O)[C@H](C(C)C)N(C)C(=O)CCN(C)C(=O)C[C@@H](C(=O)N(C)[C@@H](Cc2ccccc2)C(=O)N(C)[C@@H](Cc2ccccc2)C(=O)N[C@@H](C)C(=O)N2CCCCC2)NC(=O)[C@H](C)N(C)C(=O)[C@H](C)N(C)C(=O)[C@H]([C@@H](C)O)NC(=O)[C@H](C)N(C)C(=O)[C@H](Cc2ccccc2)N(C)C1=O` [DP-450] ([NMeβAla][NMeV][NMeA]V[NMeF][NMeA]T[NMeA][NMeA]D[NMeF][NMeF]A-Piperidide; lactam N-10), in data set [1], the microsomal CLint at 1 uM was 17 µL/min/mg. For the same compound, the Papp at 18 hours, 50 µM in data set [2] came out at 2.3 ×10⁻⁶ cm/s.
For `CC(C)C[C@@H]1NC(=O)[C@H](CC(C)C)N(C)C(=O)[C@H](CC(C)C)N(C)C(=O)[C@@H](C)N(C)C(=O)C[C@@H](C(=O)N(C)[C@@H](Cc2ccccc2)C(=O)N[C@@H](C)C(=O)N2CCCCC2)NC(=O)[C@H](CC(C)C)N(C)C(=O)[C@H](Cc2ccccc2)NC(=O)[C@H](Cc2ccccc2)N(C)C(=O)[C@H](C)NC(=O)[C@H]([C@@H](C)O)NC1=O` [DP-451] ([dNMeA][NMeL][NMeL]LTA[NMeF]F[NMeL]D[NMeF]A-Piperidide; lactam N-10), in that order: 14 µL/min/mg and 35 ×10⁻⁶ cm/s.
Consider `CC(C)C[C@H]1C(=O)NCC(=O)N[C@@H]([C@@H](C)O)C(=O)N(C)[C@@H](C(C)C)C(=O)N[C@@H](Cc2ccccc2)C(=O)N[C@H](C(=O)N(C)[C@@H](Cc2ccccc2)C(=O)N(C)[C@@H](Cc2ccccc2)C(=O)N[C@@H](C)C(=O)N2CCCCC2)CC(=O)N(C)[C@H](C)C(=O)N(C)[C@@H](C)C(=O)N[C@@H](C(C)C)C(=O)N(C)[C@@H](Cc2ccccc2)C(=O)N1C` [DP-452] ([dNMeA][NMeA]V[NMeF][NMeL]GT[NMeV]FD[NMeF][NMeF]A-Piperidide; lactam N-10), for which the microsomal CLint at 1 uM in data set [1] stood at 21 µL/min/mg. For the same compound, the Papp at 18 hours, 50 µM in data set [2] was 22 ×10⁻⁶ cm/s.
Regarding `CC[C@H](C)[C@@H]1NC(=O)[C@H](C)N(C)C(=O)[C@H]([C@@H](C)O)NC(=O)[C@H](CC(C)C)N(C)C(=O)[C@H](Cc2ccccc2)NC(=O)[C@H](C(C)C)N(C)C(=O)[C@@H](C)N(C)C(=O)C[C@@H](C(=O)N(C)[C@@H](Cc2ccccc2)C(=O)N[C@@H](C)C(=O)N2CCCCC2)NC(=O)[C@H](C)N(C)C(=O)[C@H](CC(C)C)N(C)C1=O` [DP-453] ([dNMeA][NMeV]F[NMeL]T[NMeA]I[NMeL][NMeA]D[NMeF]A-Piperidide; lactam N-10), the microsomal CLint at 1 uM in data set [1] worked out at 64 µL/min/mg. The Papp at 18 hours, 50 µM in data set [2] was 25 ×10⁻⁶ cm/s.
